From ChEMBL document CHEMBL5465560, “Selectivity Literature for EUbOPEN Chemogenomic Library” (2024)

Columns and labels:
[1] = molecular target: Phosphatidylinositol 4-phosphate 3-kinase C2 domain-containing subunit beta (Homo sapiens) (UniProt O00750); test: Selectivity interaction (KinomeScan (DiscoverX)) EUB0001049a PIK3C2B; conditions: at 1 µM
[2] = molecular target: T1, SNF-related serine/threonine-protein kinase (Homo sapiens) (UniProt Q9NRH2); test: Selectivity interaction (KinomeScan (DiscoverX)) EUB0001079a SNRK; conditions: at 1 µM
T1 sequence (whole entry): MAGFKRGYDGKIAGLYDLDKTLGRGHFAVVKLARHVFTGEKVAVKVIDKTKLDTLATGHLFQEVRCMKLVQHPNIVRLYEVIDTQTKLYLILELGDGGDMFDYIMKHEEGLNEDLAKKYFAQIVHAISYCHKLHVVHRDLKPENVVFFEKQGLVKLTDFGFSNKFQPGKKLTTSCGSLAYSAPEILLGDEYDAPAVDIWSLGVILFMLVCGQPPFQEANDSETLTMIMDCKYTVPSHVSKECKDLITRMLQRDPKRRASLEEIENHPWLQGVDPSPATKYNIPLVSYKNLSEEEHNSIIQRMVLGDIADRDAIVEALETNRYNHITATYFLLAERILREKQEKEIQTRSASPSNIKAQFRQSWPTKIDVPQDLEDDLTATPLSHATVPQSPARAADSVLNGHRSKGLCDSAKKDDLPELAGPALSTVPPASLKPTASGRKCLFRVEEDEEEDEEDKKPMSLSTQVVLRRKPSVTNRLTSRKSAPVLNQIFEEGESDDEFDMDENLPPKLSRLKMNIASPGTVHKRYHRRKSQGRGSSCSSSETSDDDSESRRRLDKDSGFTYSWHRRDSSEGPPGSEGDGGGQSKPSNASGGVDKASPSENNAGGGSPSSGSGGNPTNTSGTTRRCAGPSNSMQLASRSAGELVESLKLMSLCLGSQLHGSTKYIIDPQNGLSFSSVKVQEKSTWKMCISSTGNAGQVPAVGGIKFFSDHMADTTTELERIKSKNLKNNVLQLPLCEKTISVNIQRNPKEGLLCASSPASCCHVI

[3] = molecular target: Serine/threonine-protein kinase PAK 1 (Homo sapiens) (UniProt Q13153); test: Selectivity interaction (Kinase panel (Eurofins)) EUB0001564a PAK1; conditions: at 1 µM
Chain of Serine/threonine-protein kinase PAK 1 (Homo sapiens) (Q13153 whole entry): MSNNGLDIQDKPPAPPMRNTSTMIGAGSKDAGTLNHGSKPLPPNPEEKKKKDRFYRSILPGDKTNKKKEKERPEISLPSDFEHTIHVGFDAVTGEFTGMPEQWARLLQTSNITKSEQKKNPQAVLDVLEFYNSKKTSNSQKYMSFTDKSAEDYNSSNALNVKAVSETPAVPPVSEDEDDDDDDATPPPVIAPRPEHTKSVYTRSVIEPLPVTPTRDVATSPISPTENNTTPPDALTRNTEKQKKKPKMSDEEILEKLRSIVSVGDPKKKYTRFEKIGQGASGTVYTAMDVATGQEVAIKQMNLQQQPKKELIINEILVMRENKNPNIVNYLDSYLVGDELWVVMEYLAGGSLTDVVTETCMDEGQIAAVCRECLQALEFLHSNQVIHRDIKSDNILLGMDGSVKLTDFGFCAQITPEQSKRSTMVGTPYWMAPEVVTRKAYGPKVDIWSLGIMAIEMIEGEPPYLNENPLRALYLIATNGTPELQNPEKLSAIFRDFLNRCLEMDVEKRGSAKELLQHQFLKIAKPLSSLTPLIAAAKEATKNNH

[4] = molecular target: T2, Activin receptor type-1B (Homo sapiens) (UniProt P36896); conditions: at 10 µM
T2 sequence (whole entry): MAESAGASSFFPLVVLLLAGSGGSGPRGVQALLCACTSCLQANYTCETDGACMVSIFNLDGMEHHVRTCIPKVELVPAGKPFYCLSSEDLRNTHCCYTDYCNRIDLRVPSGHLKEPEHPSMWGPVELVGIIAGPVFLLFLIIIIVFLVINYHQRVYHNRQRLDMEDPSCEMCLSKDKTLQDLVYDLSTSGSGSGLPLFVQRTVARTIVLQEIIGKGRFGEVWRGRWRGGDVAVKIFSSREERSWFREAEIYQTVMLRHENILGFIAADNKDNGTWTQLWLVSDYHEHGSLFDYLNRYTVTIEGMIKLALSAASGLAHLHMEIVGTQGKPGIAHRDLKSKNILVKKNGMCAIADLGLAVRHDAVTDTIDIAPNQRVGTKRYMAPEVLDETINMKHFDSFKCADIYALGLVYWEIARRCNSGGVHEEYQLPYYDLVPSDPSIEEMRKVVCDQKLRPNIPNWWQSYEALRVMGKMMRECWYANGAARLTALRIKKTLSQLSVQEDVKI

[5] = molecular target: Serine/threonine-protein kinase tousled-like 2 (Homo sapiens) (UniProt Q86UE8); test: Selectivity interaction (ActivX KiNativ screen (kinase selectivity in THP-1 cell lysates)) EUB0000639a TLK2; type: subcellular; conditions: lysate, at 0.04 µM
Chain of Serine/threonine-protein kinase tousled-like 2 (Homo sapiens) (Q86UE8 whole entry, looked up): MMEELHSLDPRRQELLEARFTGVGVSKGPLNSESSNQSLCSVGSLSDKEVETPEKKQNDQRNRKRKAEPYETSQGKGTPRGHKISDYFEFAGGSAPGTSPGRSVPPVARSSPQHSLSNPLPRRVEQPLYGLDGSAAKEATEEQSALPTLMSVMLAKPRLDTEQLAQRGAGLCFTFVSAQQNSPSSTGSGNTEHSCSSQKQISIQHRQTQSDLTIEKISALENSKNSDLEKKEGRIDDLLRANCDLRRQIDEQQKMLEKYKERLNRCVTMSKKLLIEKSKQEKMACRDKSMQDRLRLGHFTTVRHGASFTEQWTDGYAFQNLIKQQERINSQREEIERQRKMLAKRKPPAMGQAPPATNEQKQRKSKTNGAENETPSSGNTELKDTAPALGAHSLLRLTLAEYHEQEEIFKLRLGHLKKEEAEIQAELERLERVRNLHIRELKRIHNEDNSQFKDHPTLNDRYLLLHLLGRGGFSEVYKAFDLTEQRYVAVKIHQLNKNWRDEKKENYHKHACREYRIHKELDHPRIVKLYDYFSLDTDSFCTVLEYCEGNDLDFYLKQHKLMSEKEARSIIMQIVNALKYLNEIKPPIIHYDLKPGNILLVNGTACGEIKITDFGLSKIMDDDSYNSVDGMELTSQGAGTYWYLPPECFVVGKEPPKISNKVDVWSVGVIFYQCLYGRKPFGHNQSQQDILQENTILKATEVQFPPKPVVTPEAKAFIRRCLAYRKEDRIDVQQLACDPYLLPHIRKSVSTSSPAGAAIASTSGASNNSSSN

[6] = molecular target: Protein-tyrosine kinase 6 (Homo sapiens, UniProt Q13882); test: Selectivity interaction (KinomeScan (DiscoverX)) EUB0000595a PTK6; conditions: at 10 µM
Chain of Protein-tyrosine kinase 6 (Q13882 whole entry, looked up): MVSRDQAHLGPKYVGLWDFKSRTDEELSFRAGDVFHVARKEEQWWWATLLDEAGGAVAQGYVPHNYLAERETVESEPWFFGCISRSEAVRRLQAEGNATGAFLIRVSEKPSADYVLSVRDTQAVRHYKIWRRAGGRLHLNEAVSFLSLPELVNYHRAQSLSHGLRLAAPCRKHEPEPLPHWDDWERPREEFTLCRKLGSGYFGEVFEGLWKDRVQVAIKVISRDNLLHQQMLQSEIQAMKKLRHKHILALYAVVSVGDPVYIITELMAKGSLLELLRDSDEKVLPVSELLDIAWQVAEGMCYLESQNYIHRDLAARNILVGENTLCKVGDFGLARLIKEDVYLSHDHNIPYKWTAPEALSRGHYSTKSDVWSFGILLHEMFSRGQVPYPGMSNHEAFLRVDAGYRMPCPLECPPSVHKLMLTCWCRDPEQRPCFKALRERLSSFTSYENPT

[7] = tested on: Tyrosine-protein kinase ABL1 (Homo sapiens), P00519 [T315I]; conditions: at 10 µM
[8] = molecular target: Death-associated protein kinase 2 (Homo sapiens) (UniProt Q9UIK4); test: Selectivity interaction (KinomeScan (DiscoverX)) EUB0001619a DAPK2; conditions: at 1 µM
Chain of Death-associated protein kinase 2 (Homo sapiens) (Q9UIK4 whole entry, looked up): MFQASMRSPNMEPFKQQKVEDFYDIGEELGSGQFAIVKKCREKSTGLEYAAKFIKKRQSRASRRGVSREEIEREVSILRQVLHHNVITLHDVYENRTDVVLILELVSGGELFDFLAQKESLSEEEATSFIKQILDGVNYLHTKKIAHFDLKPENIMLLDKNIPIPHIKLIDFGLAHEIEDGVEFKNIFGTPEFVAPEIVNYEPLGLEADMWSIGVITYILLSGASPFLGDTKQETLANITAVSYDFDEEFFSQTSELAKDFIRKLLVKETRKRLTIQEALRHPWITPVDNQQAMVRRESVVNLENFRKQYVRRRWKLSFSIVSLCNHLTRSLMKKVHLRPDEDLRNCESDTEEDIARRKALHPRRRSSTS

[9] = molecular target: Tyrosine-protein kinase CSK (Homo sapiens) (UniProt P41240); test: Selectivity interaction (ActivX KiNativ screen (ex vivo kinase selectivity in human PBMCs)) EUB0001619a CSK; type: cell-based; conditions: PBMC, at 1 µM
Chain of Tyrosine-protein kinase CSK (Homo sapiens) (P41240 2-450 limits assumed): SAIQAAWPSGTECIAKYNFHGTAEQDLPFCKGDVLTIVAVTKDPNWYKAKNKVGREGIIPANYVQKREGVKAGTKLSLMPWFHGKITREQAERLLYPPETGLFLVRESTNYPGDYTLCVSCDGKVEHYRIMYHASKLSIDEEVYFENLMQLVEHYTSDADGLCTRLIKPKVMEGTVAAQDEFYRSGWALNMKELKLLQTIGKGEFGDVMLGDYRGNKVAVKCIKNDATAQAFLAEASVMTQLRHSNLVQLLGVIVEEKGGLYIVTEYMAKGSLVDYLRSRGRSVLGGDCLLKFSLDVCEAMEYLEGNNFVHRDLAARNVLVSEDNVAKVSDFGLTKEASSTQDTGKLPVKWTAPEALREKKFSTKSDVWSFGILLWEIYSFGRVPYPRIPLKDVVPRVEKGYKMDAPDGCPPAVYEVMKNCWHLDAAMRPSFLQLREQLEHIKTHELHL

[10] = molecular target: T3, Tyrosine-protein kinase TXK (Homo sapiens) (UniProt P42681); test: Selectivity interaction (KinomeScan (DiscoverX)) EUB0001619a TXK; conditions: at 1 µM
T3 sequence (whole entry): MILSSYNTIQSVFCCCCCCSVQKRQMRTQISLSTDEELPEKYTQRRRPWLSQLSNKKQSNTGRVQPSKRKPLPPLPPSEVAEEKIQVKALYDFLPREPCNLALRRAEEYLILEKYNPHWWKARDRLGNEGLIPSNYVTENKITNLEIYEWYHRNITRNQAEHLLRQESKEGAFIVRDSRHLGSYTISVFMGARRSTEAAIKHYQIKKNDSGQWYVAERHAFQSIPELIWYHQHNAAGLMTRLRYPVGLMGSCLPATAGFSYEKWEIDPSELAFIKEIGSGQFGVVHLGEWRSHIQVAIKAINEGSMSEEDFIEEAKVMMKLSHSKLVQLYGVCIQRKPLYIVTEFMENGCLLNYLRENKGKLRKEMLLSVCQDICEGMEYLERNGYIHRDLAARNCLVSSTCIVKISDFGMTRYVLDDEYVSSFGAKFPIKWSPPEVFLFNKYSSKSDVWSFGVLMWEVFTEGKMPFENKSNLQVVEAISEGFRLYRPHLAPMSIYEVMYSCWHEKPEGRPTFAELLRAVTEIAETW

[11] = molecular target: Protein kinase C beta type (Homo sapiens, UniProt P05771); test: Selectivity interaction (SelectScreen profiling (Invitrogen)) EUB0000607a PRKCB; conditions: at 2 µM
Chain of Protein kinase C beta type (P05771 2-671 limits assumed): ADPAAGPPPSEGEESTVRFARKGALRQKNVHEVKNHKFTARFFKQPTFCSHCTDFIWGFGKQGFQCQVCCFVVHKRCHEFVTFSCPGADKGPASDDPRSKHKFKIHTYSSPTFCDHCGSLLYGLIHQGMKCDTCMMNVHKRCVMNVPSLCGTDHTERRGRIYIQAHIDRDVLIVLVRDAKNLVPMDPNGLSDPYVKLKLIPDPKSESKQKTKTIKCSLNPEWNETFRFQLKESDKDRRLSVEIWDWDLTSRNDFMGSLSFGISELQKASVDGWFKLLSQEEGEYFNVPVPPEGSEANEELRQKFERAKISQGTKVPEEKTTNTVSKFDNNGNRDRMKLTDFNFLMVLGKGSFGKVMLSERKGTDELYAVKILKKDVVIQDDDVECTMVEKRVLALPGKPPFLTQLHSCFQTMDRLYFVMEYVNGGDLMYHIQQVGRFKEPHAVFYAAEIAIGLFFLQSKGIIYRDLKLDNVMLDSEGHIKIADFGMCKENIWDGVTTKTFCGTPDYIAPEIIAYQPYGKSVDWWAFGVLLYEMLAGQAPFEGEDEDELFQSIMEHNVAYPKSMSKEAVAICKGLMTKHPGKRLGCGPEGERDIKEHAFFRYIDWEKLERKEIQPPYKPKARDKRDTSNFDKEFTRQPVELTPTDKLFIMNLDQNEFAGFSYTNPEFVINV

[12] = molecular target: Mitogen-activated protein kinase 8 (Homo sapiens, UniProt P45983); test: Selectivity interaction (KinomeScan (DiscoverX)) EUB0000607a MAPK8; conditions: at 10 µM
Chain of Mitogen-activated protein kinase 8 (P45983 whole entry): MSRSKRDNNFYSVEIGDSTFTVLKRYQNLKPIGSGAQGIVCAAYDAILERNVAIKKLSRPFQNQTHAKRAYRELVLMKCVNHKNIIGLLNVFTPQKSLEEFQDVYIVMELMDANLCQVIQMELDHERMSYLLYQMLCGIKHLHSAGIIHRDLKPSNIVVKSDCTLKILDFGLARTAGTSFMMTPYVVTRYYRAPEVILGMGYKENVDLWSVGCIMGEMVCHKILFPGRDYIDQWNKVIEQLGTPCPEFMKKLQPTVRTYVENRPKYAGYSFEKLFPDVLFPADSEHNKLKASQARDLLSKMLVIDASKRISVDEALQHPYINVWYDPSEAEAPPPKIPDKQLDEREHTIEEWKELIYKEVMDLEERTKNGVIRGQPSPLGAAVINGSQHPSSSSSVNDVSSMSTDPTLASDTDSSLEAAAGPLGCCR

[13] = molecular target: Endothelin-1 receptor (Homo sapiens) (UniProt P25101); test: Selectivity interaction (Panel of non-epigenetic targets (kinases, GPCRs, ion channels, and transporters, Eurofins) ) EUB0000271b EDNRA; conditions: at 1 µM
Chain of Endothelin-1 receptor (Homo sapiens) (P25101 whole entry): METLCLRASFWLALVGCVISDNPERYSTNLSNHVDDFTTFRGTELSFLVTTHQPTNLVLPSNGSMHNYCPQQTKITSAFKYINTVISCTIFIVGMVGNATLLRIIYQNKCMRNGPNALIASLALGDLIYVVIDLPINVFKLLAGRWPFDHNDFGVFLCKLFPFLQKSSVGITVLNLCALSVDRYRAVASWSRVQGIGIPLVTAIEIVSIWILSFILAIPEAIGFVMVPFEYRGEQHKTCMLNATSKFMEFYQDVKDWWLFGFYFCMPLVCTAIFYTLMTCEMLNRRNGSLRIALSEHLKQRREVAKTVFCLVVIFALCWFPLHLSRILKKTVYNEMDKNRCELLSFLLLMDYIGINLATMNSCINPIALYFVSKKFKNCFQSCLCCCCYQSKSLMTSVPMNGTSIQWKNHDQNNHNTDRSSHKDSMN

SMILES: COc1cc(Nc2nc(C)cc(-c3cnn4nc(OC)ccc34)n2)cc(C(F)(F)F)c1
- % of control [1]: 100%

SMILES: Nc1cnc(N2CCc3cc(S(=O)(=O)Nc4c(F)cc(Cl)cc4F)cc(N4CCCC4=O)c32)nc1 [TP-020n]
- % of control [2]: 100%

SMILES: CC[C@@H](Nc1c(C#N)c(-c2ccc(-c3cccc(C)c3F)cc2)nc2cnccc12)C(=O)O [BAY-091]
- % of inhibition [3]: 23.8%

SMILES: CCN(CC)CCCCNc1ncc2cc(-c3cc(OC)cc(OC)c3)c(NC(=O)NC(C)(C)C)nc2n1
- % of control [4]: 100%

SMILES: CC[C@@H]1[C@H](F)C(=O)N[C@@H]1COc1nccc2cc(C(N)=O)c(OC)cc12 [ZIMLOVISERTIB]
- % of inhibition [5]: 9.2%

SMILES: COCC(=O)NC/C=C/c1ccc2ncnc(Nc3ccc(Oc4ccc(C)nc4)c(C)c3)c2c1 [CP-724714]
- % of control [6]: 100%

SMILES: Cc1cc([C@@H](C)Nc2ccccc2C(=O)O)c2nc(N3CCOCC3)cc(=O)n2c1 [AZD-6482]
- % of control [7]: 100%

SMILES: N#Cc1cccc(-c2c[nH]c3ncnc(N4CCOCC4)c23)c1
- % of control [8]: 100%
- % of inhibition [9]: -2%
- % of control [10]: 100%

SMILES: CNC(=O)Nc1ccc(-c2nc(N3CC4CCC(C3)O4)c3cnn(C4CCC5(CC4)OCCO5)c3n2)cc1
- % of inhibition [11]: 9%
- % of control [12]: 91%

SMILES: Cc1cc(C)cc([C@@H]2c3cc(C)ccc3NC(=O)CN2C(=O)c2ccc(Br)s2)c1
- % of inhibition [13]: -24%
